Measurements reported in patent US12290496B2, “Compounds for use in preventing or treating athlete overtraining” (TDELTAS LIMITED, priority 2018, dated 2025).
Blank lines part the entries; values can stand above or below the molecule they belong to.

Tests used:
[1] = Training volume / work per week and per session (FIG. 10, 11); type: in vivo, human
Method: Following the pre-test, participants were enrolled in a 3-week supervised and fully-controlled exercise training program. Each week of the training program consisted of six training days with an interval training in the morning and an endurance training in the evening, for a total of twelve training sessions per week (Table 2).
The number of maximal sprints in the HIIT sessions increased from 4 in week 1, to 5 in week 2 and 6 in the final week. Endurance sessions were performed in the evening and consisted of 150 min of cycling at 65% VO2max. During the 3-week training period the subjects abstained from any exercise other than the exercise prescribed by the study protocol.
(§1) Immediately following each training session and 30 min before sleep, subjects received a recovery drink (6D Recovery Shake, Medix, Oudenaarde, Belgium) containing 1 g carbohydrates per kg body weight, plus 0.35 g whey protein isolate per kg body weight. Additionally, subjects received 0.35 g per kg body weight of a ketone ester drink or an isocaloric placebo (PL; long chain triglycerides) as a separate drink to be ingested together with the carbohydrate/protein recovery drink. The ketone ester supplement (ΔG®) delivered pure D-β-hydroxybutyrate-R 1,3 butanediol monoester. These nutritional supplements have been extensively tested before (see for instance Cox et al; Cell Metab 24: 256-268, 2016).

[2] = 30-minute simulated cycling time trial (TT30min) performance (FIG. 2); type: in vivo, human
Method: (§2) A randomized placebo-controlled (ketone ester versus placebo) intervention study was performed. The study involved a pretest and a posttest with a 3-week training overload period in between (Table 1A). During this 3-week period, subjects received either ketone ester or an isocaloric placebo (long chain triglyceride) after each training session and 30 minutes before sleep. The conditions were blinded to both the subjects and the investigators until completion of all the experiments.
Three weeks prior to the start of the study, subjects underwent a sport medical screening by a certified sports physician. One week later, the subjects participated in three familiarization sessions (Table 1B) to get familiar with the experimental procedures. […] Respiratory gas exchange was measured continuously during the test (Cortex Metalyzer II, Leipzig, Germany), and the highest oxygen uptake measured over a 30-s period defined as the maximal oxygen uptake (VO2max). […]
For the first experimental session, after a 10-min warming up (5 min at 100 W, plus 5 min at 150 W), the subjects performed a TT30min. […] Immediately after completion of the TT, subjects (1) scored the rate of perceived exertion on a 15-point Borg scale and completed a gastrointestinal symptom questionnaire. […]

[3] = acute ingestion, elite cyclists; cited from earlier work
[4] = tested on: leptin; assay: Leptin levels in fasted plasma samples (FIG. 8); type: in vivo, human
Method: as §2, §1
Blood samples (2×5 ml) were taken from an arm vein by use of the Venoject® system into BD Vacutainer® tubes. […]

[5] = DXA scanning before and after 3-week training period (FIG. 6); type: in vivo, human; conditions: 3-week training overload period
Method: as §2, §1

[6] = Food (energy) intake during 3-week training period (FIG. 7); type: in vivo, human; conditions: placebo energy intake stable
Method: as §2, §1

[7] = 30-minute time trial after 2 h submaximal constant-load exercise bout, day 18 (FIG. 3); type: in vivo, human
Method: as §2, §1
FIG. 3 illustrates the 30 minute time trial performance results at the end of a 120 minute constant-load endurance training session at day 18 of the training period. […]

[8] = Peak heart rate during 90 second all-out isokinetic sprint (FIG. 4); type: in vivo, human; conditions: 90 second all-out isokinetic sprints, 3-week training overload period
Method: as §2, §1
FIG. 4A gives the absolute values, and FIG. 4B gives the decrease in heart rate (Δ) from the pre-test values. […]

[9] = tested on: noradrenaline; assay: Urinary total nocturnal noradrenaline excretion (FIG. 9b); type: in vivo, human; conditions: before and during 3-week overreaching/overtraining period; consistently elevated in placebo
Method: as §2, §1
Total nocturnal urine (10 pm to 8 am) was collected during the night before each experimental session in flasks prepared with 10 ml hydrochloric acid. […]

[10] = Blood ketone (β-hydroxybutyrate) levels during 3-week training overload study (FIG. 1); type: in vivo, human; conditions: 30 minutes following ingestion; days 6, 13 and 20
Method: as §2
as §1, with “The ketone ester supplement (ΔG®) delivered pure D-β-hydroxybutyrate-R 1,3 butanediol monoester. These nutritional supplements have been extensively tested before (see for instance Cox et al; Cell Metab 24: 256-268, 2016).” left out
Furthermore, during TT30min small capillary blood samples (5 μl) were collected at 5-min time intervals via a small puncture in the earlobe. These microsamples were immediately analyzed for blood lactate concentration (Lactate Pro®, Arkray, Kyoto, Japan), blood glucose and βHB levels (GlucoMen Lx plus-meter with Lx glucose or Lx β-ketone strips, Menarini Diagnostics, Firenze, Italy). […]

[11] = Submaximal heart rate during first 5 minutes of 30-min time trial (FIG. 5); type: in vivo, human; conditions: 3-week training overload period
Method: as §2
For the first experimental session, after a 10-min warming up (5 min at 100 W, plus 5 min at 150 W), the subjects performed a TT30min. During the first 5 minutes (t0-t5), the workload was set equal to the mean power output achieved during the TT30min in the last familiarization session. From t5 to t25, the subjects adjusted the workload at 5-min intervals according to their subjective perception of fatigue. From t25 to t30, 1-min adjustments were allowed so as to be able to establish full exhaustion by the end of the TT. Immediately after completion of the TT, subjects (1) scored the rate of perceived exertion on a 15-point Borg scale and completed a gastrointestinal symptom questionnaire. Following 15 min of active recovery (cycling @ 50 W), subjects performed a W30s. One day later, the subjects returned to the laboratory for the second experimental session. During this session a VO2max test was performed. […]

[12] = Circulating (R)-3-hydroxybutyrate levels and gut uptake after consumption of esters; type: in vivo

blood β-hydroxybutyrate levels versus placebo drink [10]: significantly higher
circulating levels of (R)-3-hydroxybutyrate in the blood ([12]; in vivo): high circulating levels
level of uptake in the gut ([12]; in vivo): surprisingly high level of uptake
Molecule: C[C@@H](O)CCOC(=O)C[C@@H](C)O [ketone ester, (R)-3-hydroxybutyl (R)-3-hydroxybutyrate]
workload effected during each single training session versus placebo ([1]; from day 20): higher
training load versus placebo ([1]; week 3): definitely higher
training load versus placebo ([1]; weeks 1 and 2): no difference
increase in power output from pre-test ([2]; following 1 week of tapering after 3-week training overload period, not increased in placebo group): ~8%
average power during 30 minute time trial versus placebo ([2]; post-test and follow-up 1): significantly higher
endurance performance [3]: improve endurance performance
leptin levels compared to placebo ([4]; all timepoints after the pretest): higher at all timepoints
leptin levels from pretest to posttest ([4]; significantly dropped in placebo group): constant
bone mineral content in post-test compared to placebo [5]: increased bone mineral content
changes in body fat compared with placebo [5]: did not alter
changes in lean body mass compared with placebo [5]: did not alter
daily energy intake from week 1 to week 3 [6]: spontaneously increased
increase in mean power output compared with placebo drink ([7]; day 18 of training period): ~15%
average power in 30 minute time trial versus placebo group ([7]; end of 120 minute constant-load endurance session, day 18): significantly higher
decline in maximum (peak) heart rate from pre-test, versus placebo [8]: significantly less
urinary total nocturnal noradrenaline excretion [9]: stable at baseline levels
decline in submaximal heart rate vs. pre-test, versus placebo [11]: significantly less

circulating levels of (R)-3-hydroxybutyrate in the blood ([12]; upon consumption of a drink): high circulating levels
level of uptake in the gut ([12]; upon consumption of a drink): surprisingly high level of uptake
Molecule: (R)-3-hydroxybutyrate-glycerol partial ester
